Here are results for twelve compounds from US6656932B2, “Benzo thiadiazine matrix metalloproteinase inhibitors” (Warner-Lambert Company, priority 2001, dated 2003).

Holding throughout (assay type): biochemical
The target of assay [1] is MMP-14CD (catalytic domain of MMP-14) (Homo sapiens, UniProt P50281). Put plainly: Thiopeptolide hydrolysis assay, MMP-14CD. The following applies: Table 2; thiopeptolide substrate, HEPES pH 7.0; read-out: IC50 (μM) Versus Certain MMPs: MMP14 (CD). The source says:
(§1) The invention compounds of Formula I have been evaluated in standard assays for their ability to inhibit the catalytic activity of various MMP enzymes.
(§2) Thiopeptolide substrates show virtually no decomposition or hydrolysis at or below neutral pH in the absence of a matrix metalloproteinase enzyme.
(§3) Several representative compounds have been evaluated for their ability to inhibit various matrix metalloproteinase enzymes.

In assay [2] the target is T1, MMP-1FL (full-length interstitial collagenase) (Homo sapiens, UniProt P03956).
T1 sequence (P03956 100-469): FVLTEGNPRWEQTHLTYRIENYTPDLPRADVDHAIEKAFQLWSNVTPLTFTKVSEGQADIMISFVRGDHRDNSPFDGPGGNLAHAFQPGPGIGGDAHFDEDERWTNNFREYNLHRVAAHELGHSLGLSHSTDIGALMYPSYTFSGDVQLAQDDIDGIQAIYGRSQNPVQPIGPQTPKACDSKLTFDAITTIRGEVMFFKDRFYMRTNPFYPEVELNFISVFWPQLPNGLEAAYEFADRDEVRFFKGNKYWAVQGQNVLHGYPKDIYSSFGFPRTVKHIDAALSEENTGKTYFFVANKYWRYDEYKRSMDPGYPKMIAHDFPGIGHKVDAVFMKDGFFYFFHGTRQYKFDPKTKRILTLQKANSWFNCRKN
In words: Thiopeptolide hydrolysis assay, MMP-1FL. The following applies: Table 2; thiopeptolide substrate, HEPES pH 7.0; read-out: IC50 (μM) Versus Certain MMPs: MMP01 (FL).
From the text: as §1, §2, §3

In assay [3] the target is MMP-13CD (catalytic domain of collagenase 3) (Homo sapiens, UniProt P45452). Put plainly: Thiopeptolide hydrolysis assay, MMP-13CD. The following applies: Table 2; thiopeptolide substrate, HEPES pH 7.0; read-out: IC50 (μM) Versus Certain MMPs: MMP13 (CD).
From the text: as §1, §2, §3

Assay [4] addresses T2, MMP-2FL (full-length Gelatinase A) (Homo sapiens, UniProt P08253).
T2 sequence (P08253 110-660): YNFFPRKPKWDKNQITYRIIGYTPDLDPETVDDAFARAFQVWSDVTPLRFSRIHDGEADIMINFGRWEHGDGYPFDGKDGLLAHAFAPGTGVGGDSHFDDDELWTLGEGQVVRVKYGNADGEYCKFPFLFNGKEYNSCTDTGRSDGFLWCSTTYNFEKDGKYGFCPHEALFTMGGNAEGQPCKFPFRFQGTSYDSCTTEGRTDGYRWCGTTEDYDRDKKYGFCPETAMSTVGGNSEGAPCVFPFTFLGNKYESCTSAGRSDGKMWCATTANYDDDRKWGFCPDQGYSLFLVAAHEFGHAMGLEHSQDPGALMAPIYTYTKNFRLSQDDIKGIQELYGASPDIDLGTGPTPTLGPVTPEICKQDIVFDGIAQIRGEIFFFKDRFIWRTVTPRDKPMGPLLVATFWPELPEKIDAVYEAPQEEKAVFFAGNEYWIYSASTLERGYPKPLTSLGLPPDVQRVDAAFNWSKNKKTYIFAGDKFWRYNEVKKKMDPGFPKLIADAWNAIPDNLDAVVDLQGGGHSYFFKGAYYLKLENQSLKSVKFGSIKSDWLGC
Put plainly: Thiopeptolide hydrolysis assay, MMP-2FL. The following applies: Table 2; thiopeptolide substrate, HEPES pH 7.0; read-out: IC50 (μM) Versus Certain MMPs: MMP02 (FL).
From the text: as §1, §2, §3

Assay [5] addresses MMP-3CD (catalytic domain of stromelysin-1) (Homo sapiens, UniProt P08254). Put plainly: Thiopeptolide hydrolysis assay, MMP-3CD. The following applies: Table 2; thiopeptolide substrate, MES buffer pH 6.0; read-out: IC50 (μM) Versus Certain MMPs: MMP03 (CD). The method, then:
as §1, §2, §3
It should be appreciated that the assay buffer used with MMP-3CD was 50 mM of N-morpholinoethane sulfonate (“MES”) at pH 6.0 rather than the HEPES buffer at pH 7.0 described above.

The target of assay [6] is MMP-9FL (full-length Gelatinase B) (Homo sapiens, UniProt P14780). In words: Thiopeptolide hydrolysis assay, MMP-9FL. The following applies: Table 2; thiopeptolide substrate, HEPES pH 7.0; read-out: IC50 (μM) Versus Certain MMPs: MMP09 (FL).
MMP-9FL (full-length Gelatinase B), sequence (P14780 94-707, species assumed): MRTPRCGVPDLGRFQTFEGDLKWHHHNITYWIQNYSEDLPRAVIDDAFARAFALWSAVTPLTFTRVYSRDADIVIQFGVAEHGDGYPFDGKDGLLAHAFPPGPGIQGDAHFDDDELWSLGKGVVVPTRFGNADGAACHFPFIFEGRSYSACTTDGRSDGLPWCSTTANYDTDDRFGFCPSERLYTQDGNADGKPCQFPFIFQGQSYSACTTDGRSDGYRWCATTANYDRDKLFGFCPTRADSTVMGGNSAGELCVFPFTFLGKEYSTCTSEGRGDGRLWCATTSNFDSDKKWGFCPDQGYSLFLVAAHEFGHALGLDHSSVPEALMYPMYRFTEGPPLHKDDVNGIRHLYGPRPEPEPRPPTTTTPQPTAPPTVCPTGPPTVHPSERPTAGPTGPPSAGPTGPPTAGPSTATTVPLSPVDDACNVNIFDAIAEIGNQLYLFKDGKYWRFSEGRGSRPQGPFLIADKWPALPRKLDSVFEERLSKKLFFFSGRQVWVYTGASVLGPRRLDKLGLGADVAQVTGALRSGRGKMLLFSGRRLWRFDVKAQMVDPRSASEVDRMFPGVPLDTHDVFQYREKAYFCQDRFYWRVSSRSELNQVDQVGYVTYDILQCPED
From the text: as §1, §2, §3

The target of assay [7] is T3, MMP-7FL (full-length matrilysin) (Homo sapiens, UniProt P09237).
T3 sequence (P09237 95-267): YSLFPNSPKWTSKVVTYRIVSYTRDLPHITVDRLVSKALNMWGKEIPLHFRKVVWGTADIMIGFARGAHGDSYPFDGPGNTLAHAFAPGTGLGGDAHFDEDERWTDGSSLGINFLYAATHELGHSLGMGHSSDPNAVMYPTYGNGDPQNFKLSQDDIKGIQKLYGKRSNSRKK
Put plainly: Thiopeptolide hydrolysis assay, MMP-7FL. The following applies: Table 2; thiopeptolide substrate, HEPES pH 7.0; read-out: IC50 (μM) Versus Certain MMPs: MMP07 (FL).
From the text: as §1, §2, §3

MMP-3CD (catalytic domain of stromelysin-1), sequence (P08254 100-272 limits assumed): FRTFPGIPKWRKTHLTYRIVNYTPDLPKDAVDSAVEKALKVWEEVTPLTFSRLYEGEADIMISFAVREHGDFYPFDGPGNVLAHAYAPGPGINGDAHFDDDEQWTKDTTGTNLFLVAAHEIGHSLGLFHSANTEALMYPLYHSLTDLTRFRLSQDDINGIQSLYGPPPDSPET

On to `COc1ccc(CNC(=O)c2ccc3c(c2)S(=O)(=O)N(Cc2ccccc2)C(=O)N3C)cc1` [Example 5, 2-Benzyl-4-methyl-1,1,3-trioxo-1,2,3,4-tetrahydro-1l^6-benzo[1,2,4]thiadiazine-7-carboxylic acid 4-methoxy-benzylamide], for which the IC50 – broadly, the concentration needed to halve the response being measured – in assay [1] is above 30 µM; in assay [2] it was above 30 µM; in assay [3], 0.17 µM; in assay [4] it was above 100 µM; in assay [5] it was above 30 µM; in assay [6], above 30 µM. In assay [7], the half-maximal inhibitory concentration (IC50) was determined as 51 µM.
For `CN1C(=O)N(Cc2ccc(C(=O)O)cc2)S(=O)(=O)c2cc(C(=O)NCc3ccccc3)ccc21` [Example 11, 4-(7-Benzylcarbamoyl-4-methyl-1,1,3-trioxo-3,4-dihydro-H-1l^6-benzo[1,2,4]thiadiazin-2-ylmethyl)-benzoic Acid], the IC50 was above 100 µM in assay [1]; above 100 µM in assay [2]; 0.066 µM in assay [3]; above 100 µM in assay [4]; above 100 µM in assay [5]; above 100 µM in assay [6]. In assay [7], the IC50 was above 100 µM.
In the case of `COc1ccc(CNC(=O)c2ccc3c(c2)S(=O)(=O)N(Cc2ccc4ccccc4c2)C(=O)N3C)cc1` [Example 22, 4-Methyl-2-naphthalen-2-ylmethyl-1,1,3-trioxo-1,2,3,4-tetrahydro-1l^6-benzo[1,2,4]thiadiazine-7-carboxylic acid 4-methoxy-benzylamide], the half-maximal inhibitory concentration (IC50) is above 30 µM in assay [1]; above 30 µM in assay [2]; 0.62 µM in assay [3]; above 30 µM in assay [5]; above 30 µM in assay [6]; above 30 µM in assay [7].
As to `CN1C(=O)N(Cc2ccccc2)S(=O)(=O)c2cc(C(=O)NCc3ccc4nsnc4c3)ccc21` [Example 24, 2-Benzyl-4-methyl-1,1,3-trioxo-1,2,3,4-tetrahydro-1l^6-benzo[1,2,4]thiadiazine-7-carboxylic acid (2,1,3-benzothiadiazol-5-ylmethyl)-amide], the IC50 in assay [1] is above 30 µM; in assay [2], above 30 µM; in assay [3], 0.125 µM; in assay [5] it was 13 µM; in assay [6], above 30 µM; in assay [7] it was above 30 µM.
In the case of `CN1C(=O)N(Cc2ccc(C(=O)O)cc2)S(=O)(=O)c2cc(C(=O)NCc3ccc(F)cc3)ccc21` [Example 25, 4-[7-(4-Fluoro-benzylcarbamoyl)-4-methyl-1,1,3-trioxo-3,4-dihydro-1H-1l^6-benzo[1,2,4]thiadiazin-2-ylmethyl]-benzoic Acid], the IC50 in assay [1] was above 100 µM; in assay [2], above 100 µM; in assay [3] it was 0.019 µM; in assay [5] it was above 30 µM; in assay [6] it was above 100 µM; in assay [7], above 100 µM.
For the compound `COc1ccc(CNC(=O)c2ccc3c(c2)S(=O)(=O)N(Cc2ccc(C(=O)N4CCCCC4)cc2)C(=O)N3C)cc1` [Example 27, 4-Methyl-1,1,3-trioxo-2-[4-(piperidine-1-carbonyl)-benzyl]-1,2,3,4-tetrahydro-1l^6-benzo[1,2,4]thiadiazine-7-carboxylic acid 4-methoxy-benzylamide], the IC50 in assay [1] was above 30 µM; in assay [2], above 30 µM; in assay [3] it was 0.29 µM; in assay [5], 10 µM; in assay [6] it was above 30 µM; in assay [7] it was above 30 µM.
With `COc1ccc(CNC(=O)c2ccc3c(c2)S(=O)(=O)N(Cc2ccc(C(=O)NC(C(=O)O)C(C)C)cc2)C(=O)N3C)cc1` (centres unmarked) [Example 28, 2-{4-[7-(4-Methoxy-benzylcarbamoyl)-4-methyl-1,1,3-trioxo-3,4-dihydro-1l^6-benzo[1,2,4]thiadiazin-2-ylmethyl]-benzoylamino}-3-methyl-butyric Acid], the IC50 in assay [1] was above 100 µM; in assay [2], above 100 µM; in assay [3] it was 0.25 µM; in assay [5] it was above 30 µM; in assay [6], above 100 µM; in assay [7] it was above 100 µM.
With `COc1ccc(CNC(=O)c2ccc3c(c2)S(=O)(=O)N(Cc2ccc(C#N)cc2)C(=O)N3C)cc1` [Example 29, 2-(4-Cyano-benzyl)-4-methyl-1,1,3-trioxo-1,2,3,4-tetrahydro-1l^6-benzo[1,2,4]thiadiazine-7-carboxylic acid 4-methoxy-benzylamide], the IC50 is above 30 µM in assay [1]; above 30 µM in assay [2]; 0.13 µM in assay [3]; 9.4 µM in assay [5]; above 30 µM in assay [6]; above 30 µM in assay [7].
On to `COc1ccc(CNC(=O)c2ccc3c(c2)S(=O)(=O)N(Cc2ccc(CC(=O)O)cc2)C(=O)N3C)cc1` [Example 30, {4-[7-(4-Methoxy-benzylcarbamoyl)-4-methyl-1,1,3-trioxo-3,4-dihydro-1H-1l^6-benzo[1,2,4]thiadiazin-2-ylmethyl]-phenyl}-acetic Acid], for which the IC50 in assay [1] was above 100 µM; in assay [2], above 100 µM; in assay [3] it was 0.0355 µM; in assay [5] it was above 30 µM; in assay [6], above 100 µM; in assay [7], 82 µM.
For `COc1cccc(CNC(=O)c2ccc3c(c2)S(=O)(=O)N(Cc2ccc(C(=O)O)cc2)C(=O)N3C)c1` [Example 31, 4-[7-(3-Methoxy-benzylcarbamoyl)-4-methyl-1,1,3-trioxo-3,4-dihydro-1H-1l^6-benzo[1,2,4]thiadiazin-2-ylmethyl]-benzoic Acid], the IC50 in assay [1] is above 100 µM; in assay [2], above 100 µM; in assay [3], 0.00485 µM; in assay [5] it was above 30 µM; in assay [6] it was above 100 µM; in assay [7], above 30 µM.
`COc1ccc(CNC(=O)c2ccc3c(c2)S(=O)(=O)N(Cc2ccc(-c4nn[nH]n4)cc2)C(=O)N3C)cc1` [Example 32, 4-Methyl-1,1,3-trioxo-2-[4-(2H-tetrazol-5-yl)-benzyl]-1,2,3,4-tetrahydro-1l^6-benzo[1,2,4]thiadiazine-7-carboxylic acid 4-methoxy-benzylamide]: the half-inhibitory concentration (IC50) in assay [1] is above 100 µM; in assay [2] it was above 100 µM; in assay [3] it was 0.0062 µM; in assay [5] it was 15 µM; in assay [6], above 100 µM; in assay [7], above 30 µM.
As to `COc1cccc(CNC(=O)c2ccc3c(c2)S(=O)(=O)N(Cc2ccccc2)C(=O)N3C)c1` [Example 34, 2-Benzyl-4-methyl-1,1,3-trioxo-1,2,3,4-tetrahydro-1l^6-benzo[1,2,4]thiadiazine-7-carboxylic acid 3-methoxy-benzylamide], the IC50 in assay [1] was above 30 µM; in assay [2], above 30 µM; in assay [3], 0.0625 µM; in assay [5] it was above 100 µM; in assay [6], above 30 µM; in assay [7], above 30 µM.
